According to patent USRE39862E1, “Unsaturated 14, 15-cyclopropanoandrostanes, a method for their production and pharmaceutical compositions containing these compounds” (Schering AG, priority 2000, dated 2007):

What was measured:
[1] = pregnancy maintenance test; details: in vivo
[2] = target: T1, androgen receptor of the rat prostate (Rattus norvegicus, UniProt P15207); assay: binding to the androgen receptor of the rat prostate (reference substance R 1881); details: reference substance 17β-hydroxy-17α-methyl-estra-4,9,11-triene-3-one (R 1881)
T1 construct: to the androgen receptor of the rat prostate; from tissue; host or cells: rat prostate
T1 sequence (P15207 1-902): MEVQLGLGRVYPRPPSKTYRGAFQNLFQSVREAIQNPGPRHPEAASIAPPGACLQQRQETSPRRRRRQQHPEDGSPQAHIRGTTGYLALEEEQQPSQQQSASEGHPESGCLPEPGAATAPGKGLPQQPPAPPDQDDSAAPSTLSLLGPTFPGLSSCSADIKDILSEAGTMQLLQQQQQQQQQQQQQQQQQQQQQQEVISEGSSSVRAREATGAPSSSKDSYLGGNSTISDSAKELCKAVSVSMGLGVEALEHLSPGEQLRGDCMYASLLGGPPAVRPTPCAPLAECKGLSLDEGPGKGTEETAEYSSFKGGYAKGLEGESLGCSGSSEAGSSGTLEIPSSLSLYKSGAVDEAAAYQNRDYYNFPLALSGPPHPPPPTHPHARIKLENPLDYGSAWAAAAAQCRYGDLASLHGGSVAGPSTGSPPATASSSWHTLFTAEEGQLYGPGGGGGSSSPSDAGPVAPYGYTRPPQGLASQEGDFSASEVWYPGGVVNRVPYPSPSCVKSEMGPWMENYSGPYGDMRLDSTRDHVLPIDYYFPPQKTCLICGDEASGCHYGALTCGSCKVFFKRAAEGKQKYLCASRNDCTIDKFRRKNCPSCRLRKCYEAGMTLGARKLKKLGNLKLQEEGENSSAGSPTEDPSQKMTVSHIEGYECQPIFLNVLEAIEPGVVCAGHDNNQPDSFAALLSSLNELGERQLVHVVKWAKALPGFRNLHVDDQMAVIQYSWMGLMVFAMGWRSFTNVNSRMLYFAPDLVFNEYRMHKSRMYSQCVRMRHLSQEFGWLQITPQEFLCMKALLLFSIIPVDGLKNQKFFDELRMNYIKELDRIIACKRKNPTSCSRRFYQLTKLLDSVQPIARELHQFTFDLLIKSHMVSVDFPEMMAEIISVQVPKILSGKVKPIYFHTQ
Description: The 4-chloro-17β-hydroxy-14α,15α-methylene-androst-4-ene-3-one binds to the extent of 42%±3% to the androgen receptor of the rat prostate (reference substance. 17β-hydroxy-17α-methyl-estra-4,9,11-triene-3-one; R 1881).

Hershberger test = details: in vivo
[3] = target: T2, progesterone receptor of the rabbit uterus (Oryctolagus cuniculus, UniProt P06186); assay: binding to the progesterone receptor of the rabbit uterus (reference substance progesterone)
T2 construct: from tissue; host or cells: rabbit uterus
T2 sequence (P06186 1-930): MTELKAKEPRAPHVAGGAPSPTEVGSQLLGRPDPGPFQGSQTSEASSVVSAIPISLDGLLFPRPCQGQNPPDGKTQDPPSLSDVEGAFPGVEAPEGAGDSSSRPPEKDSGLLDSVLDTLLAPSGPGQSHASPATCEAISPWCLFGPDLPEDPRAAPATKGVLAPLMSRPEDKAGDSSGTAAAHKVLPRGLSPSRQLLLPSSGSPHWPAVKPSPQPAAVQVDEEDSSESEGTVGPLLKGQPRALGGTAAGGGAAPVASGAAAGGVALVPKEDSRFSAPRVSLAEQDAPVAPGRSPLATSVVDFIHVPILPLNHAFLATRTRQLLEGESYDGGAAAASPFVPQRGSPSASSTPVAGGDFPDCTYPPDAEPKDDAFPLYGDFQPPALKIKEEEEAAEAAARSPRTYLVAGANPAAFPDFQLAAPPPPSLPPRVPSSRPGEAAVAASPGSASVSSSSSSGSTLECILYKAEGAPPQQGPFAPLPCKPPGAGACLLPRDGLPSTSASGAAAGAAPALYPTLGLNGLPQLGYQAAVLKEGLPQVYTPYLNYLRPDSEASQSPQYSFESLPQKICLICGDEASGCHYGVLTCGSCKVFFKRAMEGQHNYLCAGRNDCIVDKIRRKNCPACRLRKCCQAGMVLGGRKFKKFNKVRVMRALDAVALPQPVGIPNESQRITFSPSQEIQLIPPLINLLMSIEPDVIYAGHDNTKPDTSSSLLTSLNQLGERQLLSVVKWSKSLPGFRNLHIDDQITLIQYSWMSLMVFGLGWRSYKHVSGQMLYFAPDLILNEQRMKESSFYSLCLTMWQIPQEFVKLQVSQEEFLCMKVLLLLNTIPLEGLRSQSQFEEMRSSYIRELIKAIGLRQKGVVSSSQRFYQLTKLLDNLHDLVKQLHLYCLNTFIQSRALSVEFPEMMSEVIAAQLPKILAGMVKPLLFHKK

Q: Which “gestagenic activity in the pregnancy maintenance test” value [1] does the source give for `C[C@]12CCC(=O)C(Cl)=C1CC[C@@H]1[C@@H]2CC[C@]2(C)[C@@H](O)C[C@@H]3C[C@]312` [Example 3, 4-Chloro-17β-hydroxy-14α,15α-methylene-androst-4-ene-3-one] here?
A: Its value is “hardly any gestagenic activity”.

Q: And the “binds to the extent of ... to the androgen receptor” value [2]?
A: Its value is 42%±3%.

Q: What about the “androgenic activity in the Hershberger test” value (Hershberger test) of the same compound?
A: The value was “distinct androgenic activity”.

Q: And the “binding to the progesterone receptor” value [3]?
A: The value was “practically no binding”.
